Laboratory results published in patent publication US20150011423A1, “MEANS AND METHODS FOR ASSESSING KIDNEY TOXICITY” (BASF SE, priority 2011, published 2015).
Marks after values point to notes of the source that are not given here.

Tested on: rats
Experiment: 28-day repeated dose study in rats with mass spectrometry-based plasma metabolite profiling (GC-MS, LC-MS, SPE-LC-MS); treatment ratios versus control
Conditions: plasma
[1] = female rats, day 28, high dose, Table 5a tubular necrosis
[2] = female rats, day 28, high dose, Table 5b tubular necrosis
[3] = male rats, day 28, high dose, Table 8a direct tubular effect
[4] = male rats, day 28, high dose, Table 8b direct tubular effect
[5] = male rats, day 7, high dose, Table 7a interstitial nephritis
[6] = male rats, day 7, high dose, Table 7b interstitial nephritis
[7] = male rats, day 14, high dose, Table 7a interstitial nephritis
[8] = male rats, day 14, high dose, Table 7b interstitial nephritis
[9] = male rats, day 28, high dose, Table 7a interstitial nephritis
[10] = male rats, day 28, high dose, Table 7b interstitial nephritis

SMILES: ClC(Cl)=C(Cl)C(Cl)=C(Cl)Cl [Hexachlorobutadiene]
- Docosahexaenoic acid (C22:cis[4,7,10,13,16,19]6), treatment ratio versus control [1]: 1.19 *
- Docosapentaenoic acid (C22:cis[7,10,13,16,19]5), treatment ratio versus control [1]: 1.61 *
- Eicosanoic acid (C20:0), treatment ratio versus control [1]: 1.56 *
- Glycerol, lipid fraction, treatment ratio versus control [1]: 1.29 *
- Leucine, treatment ratio versus control [1]: 1.34 *
- Phosphate (inorganic and organic phosphates), treatment ratio versus control [1]: 1.19 *
- Hippuric acid, treatment ratio versus control [2]: 0.35 *
- Lactate, treatment ratio versus control [2]: 0.62 *
- Glycerol-3-phosphate, polar fraction, treatment ratio versus control [3]: 1.58 *
- Isoleucine, treatment ratio versus control [3]: 1.11 *
- Leucine, treatment ratio versus control [3]: 1.17 *
- Lysophosphatidylethanolamine (C22:0), treatment ratio versus control [3]: 1.33 *
- Ornithine, treatment ratio versus control [3]: 1.35 *
- TAG No 02, treatment ratio versus control [3]: 1.47 *
- Threonine, treatment ratio versus control [3]: 1.3 *
- 14-Methylhexadecanoic acid, treatment ratio versus control [4]: 0.82 *
- 16-Methylheptadecanoic acid, treatment ratio versus control [4]: 0.51 *
- 18-Hydroxy-11-deoxycorticosterone, treatment ratio versus control [4]: 0.49 *
- Citrate, treatment ratio versus control [4]: 0.93 *
- DAG (C18:1, C18:2), treatment ratio versus control [4]: 0.66 *
- Elaidic acid (C18:trans[9]1), treatment ratio versus control [4]: 0.8 *
- Isopalmitic acid (C16:0), treatment ratio versus control [4]: 0.61 *
- Ketoleucine, treatment ratio versus control [4]: 0.91 *
- Linolenic acid (C18:cis[9,12,15]3), treatment ratio versus control [4]: 0.6 *
- Lysophosphatidylcholine (C18:0), treatment ratio versus control [4]: 0.97 *
- Oleic acid (C18:cis[9]1), treatment ratio versus control [4]: 0.71 *
- Palmitoleic acid (C16:cis[9]1), treatment ratio versus control [4]: 0.25 *
- TAG (C16:0, C16:1), treatment ratio versus control [4]: 0.51 *
- trans-4-Hydroxyproline, treatment ratio versus control [4]: 0.74 *

SMILES: C[C@H](CCC(=O)O)[C@H]1CC[C@H]2[C@@H]3CC[C@@H]4C[C@H](O)CC[C@]4(C)[C@H]3CC[C@]12C [Lithocholic acid]
- Eicosanoic acid (C20:0), treatment ratio versus control [5]: 1.81 *
- Glucuronic acid, treatment ratio versus control [5]: 0.85 *
- Glycerol, polar fraction, treatment ratio versus control [6]: 0.93^
- Isopalmitic acid (C16:0), treatment ratio versus control [6]: 0.63 *
- Kynurenic acid, treatment ratio versus control [6]: 0.75 *
- Glucuronic acid, treatment ratio versus control [7]: 1
- myo-Inositol-2-phosphate, treatment ratio versus control [7]: 1.01
- Glycerol, polar fraction, treatment ratio versus control [8]: 0.86^
- Isopalmitic acid (C16:0), treatment ratio versus control [8]: 0.54 *
- Kynurenic acid, treatment ratio versus control [8]: 0.75 *
- Glucuronic acid, treatment ratio versus control [9]: 1
- Lignoceric acid (C24:0), treatment ratio versus control [9]: 1.3 *
- Sphingomyelin (d18:1, C16:0), treatment ratio versus control [9]: 1.09
- Threonine, treatment ratio versus control [9]: 1.55 *
- Glycerol, polar fraction, treatment ratio versus control [10]: 0.73 *
- Isopalmitic acid (C16:0), treatment ratio versus control [10]: 0.68 *
- Kynurenic acid, treatment ratio versus control [10]: 0.71^
